Source: the NIST ThermoML archive (doi:10.1016/j.jct.2015.12.005)
“And” between values parts separate entries of the source, which are not always exact repeats. Equal values may be shown once.

Experiments:
[1] = for mass density: Vibrating tube method; for vapor or sublimation pressure: Twin ebulliometer; for Triple point temperature: Adiabatic calorimetry
[2] = Molar enthalpy of transition or fusion; conditions: Adiabatic calorimetry

c1ccc2c(c1)CCC2 [indane]
[1]
Conditions | mass density [kg/m3] | molar entropy [J/K/mol] | vapor or sublimation pressure
5 K, Crystal 2, Vacuum adiabatic calorimetry | – | 0.09977 | –
10 K, Crystal 2, Vacuum adiabatic calorimetry | – | 0.873 | –
20 K, Crystal 2, Vacuum adiabatic calorimetry | – | 5.878 | –
30 K, Crystal 2, Vacuum adiabatic calorimetry | – | 13.6 | –
40 K, Crystal 2, Vacuum adiabatic calorimetry | – | 22.12 | –
50 K, Crystal 2, Vacuum adiabatic calorimetry | – | 30.71 | –
60 K, Crystal 2, Vacuum adiabatic calorimetry | – | 39.24 | –
62 K, Crystal 2, Vacuum adiabatic calorimetry | – | 40.96 | –
64 K, Crystal 2, Vacuum adiabatic calorimetry | – | 42.68 | –
66 K, Crystal 2, Vacuum adiabatic calorimetry | – | 44.42 | –
68 K, Crystal 2, Vacuum adiabatic calorimetry | – | 46.19 | –
70 K, Crystal 2, Vacuum adiabatic calorimetry | – | 48 | –
72 K, Crystal 2, Vacuum adiabatic calorimetry | – | 49.85 | –
73.83 K, Crystal 1, Vacuum adiabatic calorimetry | – | 53.65 | –
73.83 K, Crystal 2, Vacuum adiabatic calorimetry | – | 51.59 | –
74 K, Crystal 1, Vacuum adiabatic calorimetry | – | 53.79 | –
76 K, Crystal 1, Vacuum adiabatic calorimetry | – | 55.33 | –
78 K, Crystal 1, Vacuum adiabatic calorimetry | – | 56.85 | –
80 K, Crystal 1, Vacuum adiabatic calorimetry | – | 58.36 | –
90 K, Crystal 1, Vacuum adiabatic calorimetry | – | 65.61 | –
100 K, Crystal 1, Vacuum adiabatic calorimetry | – | 72.48 | –
120 K, Crystal 1, Vacuum adiabatic calorimetry | – | 85.36 | –
140 K, Crystal 1, Vacuum adiabatic calorimetry | – | 97.4 | –
160 K, Crystal 1, Vacuum adiabatic calorimetry | – | 108.88 | –
180 K, Crystal 1, Vacuum adiabatic calorimetry | – | 120 | –
200 K, Crystal 1, Vacuum adiabatic calorimetry | – | 130.94 | –
220 K, Crystal 1, Vacuum adiabatic calorimetry | – | 141.81 | –
221.79 K, Crystal 1, Vacuum adiabatic calorimetry | – | 142.78 | –
323.15 K, Liquid | 937.2 | – | –
338.12 K, Liquid | – | – | 2 kPa
344.12 K, Liquid | – | – | 2.666 kPa
348.15 K, Liquid | 915.6 | – | –
353.03 K, Liquid | – | – | 4 kPa
359.69 K, Liquid | – | – | 5.333 kPa
369.61 K, Liquid | – | – | 7.999 kPa
373.15 K, Liquid | 893.7 | – | –
377.06 K, Liquid | – | – | 10.67 kPa
383.1 K, Liquid | – | – | 13.33 kPa
389.37 K, Liquid | – | – | 16.66 kPa
394.58 K, Liquid | – | – | 19.93 kPa
398.15 K, Liquid | 871.2 | – | –
401.44 K, Liquid | – | – | 25.02 kPa and 25.02 kPa
408.36 K, Liquid | – | – | 31.17 kPa
415.33 K, Liquid | – | – | 38.56 kPa
422.35 K, Liquid | – | – | 47.37 kPa
423.15 K, Liquid | 848.5 | – | –
429.42 K, Liquid | – | – | 57.81 kPa
436.54 K, Liquid | – | – | 70.11 kPa
443.71 K, Liquid | – | – | 84.53 kPa
448.15 K, Liquid | 824.8 | – | –
450.93 K, Liquid | – | – | 101.32 kPa
458.2 K, Liquid | – | – | 120.78 kPa
465.53 K, Liquid | – | – | 143.23 kPa
472.9 K, Liquid | – | – | 169 kPa
473.15 K, Liquid | 799.8 | – | –
480.33 K, Liquid | – | – | 198.46 kPa
487.8 K, Liquid | – | – | 231.99 kPa
495.33 K, Liquid | – | – | 269.98 kPa
498.15 K, Liquid | 774 | – | –
523.15 K, Liquid | 745.8 | – | –

[1], Liquid
Conditions | molar entropy [J/K/mol]
221.79 K, Vacuum adiabatic calorimetry | 181.35
230 K, Vacuum adiabatic calorimetry | 187.35
240 K, Vacuum adiabatic calorimetry | 194.49
250 K, Vacuum adiabatic calorimetry | 201.46
260 K, Vacuum adiabatic calorimetry | 208.28
270 K, Vacuum adiabatic calorimetry | 214.98
280 K, Vacuum adiabatic calorimetry | 221.57
290 K, Vacuum adiabatic calorimetry | 228.06
298.15 K, Vacuum adiabatic calorimetry | 233.26
300 K, Vacuum adiabatic calorimetry | 234.44
310 K, Vacuum adiabatic calorimetry | 240.74
320 K, Vacuum adiabatic calorimetry | 246.96
330 K, Vacuum adiabatic calorimetry | 253.13
333.38 K, Vacuum adiabatic calorimetry | 255.19
340 K, Vacuum adiabatic calorimetry | 259.22
350 K, Vacuum adiabatic calorimetry | 265.26
360 K, Vacuum adiabatic calorimetry | 271.24
370 K, Vacuum adiabatic calorimetry | 277.19
380 K, Vacuum adiabatic calorimetry | 283.07
390 K, Vacuum adiabatic calorimetry | 288.92
400 K, Vacuum adiabatic calorimetry | 294.73
410 K, Vacuum adiabatic calorimetry | 300.49
420 K, Vacuum adiabatic calorimetry | 306.23
430 K, Vacuum adiabatic calorimetry | 311.92
440 K, Vacuum adiabatic calorimetry | 317.58
450 K, Small sample (50 mg) DSC | 323.22
460 K, Small sample (50 mg) DSC | 328.83
470 K, Small sample (50 mg) DSC | 334.43
480 K, Small sample (50 mg) DSC | 340.01
490 K, Small sample (50 mg) DSC | 345.57
500 K, Small sample (50 mg) DSC | 351.1
510 K, Small sample (50 mg) DSC | 356.62
520 K, Small sample (50 mg) DSC | 362.11
530 K, Small sample (50 mg) DSC | 367.58
540 K, Small sample (50 mg) DSC | 373.04
550 K, Small sample (50 mg) DSC | 378.48
560 K, Small sample (50 mg) DSC | 383.9
570 K, Small sample (50 mg) DSC | 389.31
580 K, Small sample (50 mg) DSC | 394.7
590 K, Small sample (50 mg) DSC | 400.08
600 K, Small sample (50 mg) DSC | 405.43

Conditions | Molar enthalpy of transition or fusion, [2] [kcal/mol] | Triple point temperature, [1] [K]
Crystal 1 | 2.044 | 221.79
Crystal 2 | 0.0363 | 73.83
